Measurements as given in patent US20160115540A1, “PRODRUGS AND DRUGS” (Biogen MA Inc., priority 2013, published 2016).
Where a name gives a salt, the structure may show the parent alone.

Tested on: blood and tissues
Test: Transcriptional profiling, acute (single) dosing, EAE mice: blood and tissues
Type: in vivo
Conditions: for Number of differentially expressed genes identified: Brain / Number of differentially expressed genes identified: Cerebellum / Number of differentially expressed genes identified: Lymph Node / Number of differentially expressed genes identified: Spleen / Number of differentially expressed genes identified: Whole blood / Number of differentially expressed genes identified: Spinal Cord: EAE, Acute Dosing
Text: EAE induction is generally performed by immunization with brain extracts, CNS proteins (such as myelin basic protein), or peptides from such protein emulsified in an adjuvant such as complete Freund's adjuvant, e.g., as described in Linker et al., Brain. 2011 March 134(Pt3): 678-92. […] FIG. 17 depicts exemplary immunophenotyping panels used to analyze various immune cell populations (e.g., T cells, T regulatory cells, NK cells, B cells, myeloid cells). […] The number of independent mice whose tissues were harvested for transcript profiling studies and whose data passed QC is shown in TABLE 15. Animals were exposed to CO2 and whole blood collected via cardiac puncture. Two 100 μl aliquots of whole blood were collected in 1.5 mL microcentrifuge tubes and snap frozen in liquid nitrogen. Peripheral (liver, spleen, kidney and jejunum) and CNS brain (cerebellum, hippocampus, striatum and cortex) tissues were harvested and snap frozen in liquid nitrogen, with special care taken to collect tissues of similar size and from the same location. All samples were stored at -80° C. until RNA extraction was conducted. For RNA preparation, frozen tissues were placed in 2 mL RNAse-free 96-well blocks with 1.5 mL QIAzol Lysis Reagent (QIAgen) and a 3.2 mm stainless steel bead (BioSpec Products, Bartlesville, Okla.). Tissues were disrupted for four cycles of 45 seconds in a Mini-Beadbeater (Biospec Products). RNA was extracted in chloroform and the aqueous phase was mixed with an equal volume of 70% ethanol. Extracted RNA was applied to RNeasy 96 plates and purified by the spin method according to the manufacturer's protocol (RNeasy 96 Universal Tissue Protocol, QIAgen, Hilden Germany). 50 ul of snap frozen mouse blood was re-suspended in lysis buffer with proteinase K and arrayed into deep-well plates for automated RNA extraction. RNA extractions were completed on […] (Beckman Coulter, Indianapolis, Ind.) using Agencourt RNAdvance Blood kit (Part number A35604) according to the manufacturer's specifications. RNA integrity was assessed using the HT RNA reagent kit (Part number 760410, Caliper Life Sciences, Hopkinton, Mass.) using a LabChip GX (PerkinElmer, Waltham, Mass.). RNA samples with a RQS score of >8.0 were considered high quality for downstream microarray processing. […] Washing and staining of the hybridized arrays were completed as described in the GeneChip Expression analysis technical manual for HT plate arrays using the Genechip® Array Station (Affymetrix, Santa Clara, Calif.) with modifications as described in […] et al. The processed GeneChip® plate arrays were scanned using GeneTitan scanner (Affymetrix, Santa Clara, Calif.). Affymetrix scans were subject to quality control (QC) measures. These tests included a visual inspection of the distribution of raw signal intensities and an assessment of RNA degradation, relative log expression (RLE), and normalized unscaled standard error (NUSE). All sample scans that passed these QC metrics were included in the analysis. […] Nucleic Acids Res 2003; 31:e15; Li C, et al. Genome Biol 2001; 2:[…]0032). […] Stat Appl Genet Mol Biol 2004; 3:Article3). […] Springer Science+Business Media 2005). […] Generally, no distinct sample groupings were apparent from this analysis; however, in the following cohorts, differences in EAE severity across the mice were manifest in global gene expression patterns: An example of this animal grouping is shown in FIG. 33 for the spinal cord from the chronically-dosed 7 h EAE mice. […] Three distinct groups of mice result from unsupervised clustering, and these animal groups correlate with the cumulative EAE score. […] Subsequent analyses for the cohorts listed above only included those animals with the most severe EAE scores; however, for the cohorts 'Spinal Cord, Acute Dosing, 7 h' and 'Spleen, Acute Dosing, 12 h,' there were an insufficient number of mice in the different treatment groups to perform such a sub-analysis. […]

[1] = 100 mpk DMF-vs-90 mpk MMF, 7 h after last dosing
[2] = 100 mpk DMF-vs-90 mpk MMF, 12 h after last dosing
[3] = 100 mpk DMF-vs-Vehicle, 7 h after last dosing
[4] = 100 mpk DMF-vs-Vehicle, 12 h after last dosing
[5] = lymph node, 100DMF-vs-Veh, 12 h
[6] = whole blood, 100DMF-vs-Veh, 7 h

COC(=O)/C=C/C(=O)OC [DMF, dimethyl fumarate]
Number of differentially expressed genes identified: Brain [1]: 0 | Number of differentially expressed genes identified: Cerebellum [1]: 0 | Number of differentially expressed genes identified: Lymph Node [1]: 0 | Number of differentially expressed genes identified: Spleen [1]: 0 | Number of differentially expressed genes identified: Whole blood [1]: 0 | Number of differentially expressed genes identified: Brain [2]: 0 | Number of differentially expressed genes identified: Cerebellum [2]: 0 | Number of differentially expressed genes identified: Lymph Node [2]: 0 | Number of differentially expressed genes identified: Spinal Cord [2]: 0 | Number of differentially expressed genes identified: Whole blood [2]: 0 | Number of differentially expressed genes identified: Brain [3]: 0 | Number of differentially expressed genes identified: Cerebellum [3]: 0 | Number of differentially expressed genes identified: Lymph Node [3]: 7 | Number of differentially expressed genes identified: Spleen [3]: 21 | Number of differentially expressed genes identified: Whole blood [3]: 3 | Number of differentially expressed genes identified: Brain [4]: 0 | Number of differentially expressed genes identified: Cerebellum [4]: 0 | Number of differentially expressed genes identified: Lymph Node [4]: 2 | Number of differentially expressed genes identified: Spinal Cord [4]: 1 | Number of differentially expressed genes identified: Whole blood [4]: 0 | differentially expressed genes (cerebellum, 100DMF-vs-90MMF, 7 h): None | differentially expressed genes (cerebellum, 100DMF-vs-90MMF, 12 h): None | differentially expressed genes (cerebellum, 100DMF-vs-Veh, 7 h): None | differentially expressed genes (cerebellum, 100DMF-vs-Veh, 12 h): None | differentially expressed genes (lymph node, 100DMF-vs-90MMF, 7 h): None | differentially expressed genes (lymph node, 100DMF-vs-90MMF, 12 h): None | FC Aox1 (1419435_PM_at) (lymph node, 100DMF-vs-Veh, 7 h): 2.16 | FC F3 1417408_PM_at (lymph node, 100DMF-vs-Veh, 7 h): 1.59 | FC Gclm 1439050_PM_at (lymph node, 100DMF-vs-Veh, 7 h): 1.53 | FC Nqo1 (1423627_PM_at) (lymph node, 100DMF-vs-Veh, 7 h): 2.19 | FC Pir (1429001_PM_at) (lymph node, 100DMF-vs-Veh, 7 h): 1.52 | FC Srxn1 (1419942_PM_at) (lymph node, 100DMF-vs-Veh, 7 h): 1.71 | FC Srxn1 (1426875_PM_s_at) (lymph node, 100DMF-vs-Veh, 7 h): 1.68 | FC Aox1 (1419435_PM_at) [5]: 1.69 | FC Nqo1 (1423627_PM_at) [5]: 1.69 | differentially expressed genes (spinal cord, 100DMF-vs-90MMF, 12 h): None | FC Blvrb (1451386_PM_at) (spinal cord, 100DMF-vs-Veh, 12 h): 1.84 | differentially expressed genes (spleen, 100DMF-vs-90MMF, 7 h): None | FC 1441413_PM_at (spleen, 100DMF-vs-Veh, 7 h): 1.52 | FC 1458902_PM_at (spleen, 100DMF-vs-Veh, 7 h): 1.69 | FC Aox1 (1419435_PM_at) (spleen, 100DMF-vs-Veh, 7 h): 1.74 | FC Cat 1416430_PM_at (spleen, 100DMF-vs-Veh, 7 h): 1.63 | FC Dennd4a 1435975_PM_at (spleen, 100DMF-vs-Veh, 7 h): 1.56 | FC Dnmt31 1425035_PM_s_at (spleen, 100DMF-vs-Veh, 7 h): 1.81 | FC Gclm 1439050_PM_at (spleen, 100DMF-vs-Veh, 7 h): 2.02 | FC Gsta3 (1423436_PM_at) (spleen, 100DMF-vs-Veh, 7 h): 1.74 | FC Gsta3 (1423437_PM_at) (spleen, 100DMF-vs-Veh, 7 h): 1.55 | FC Higd1c /// Mettl7a1 /// Mettl7a2 1434150_PM_a_at (spleen, 100DMF-vs-Veh, 7 h): 2.00 | FC Il1f9 1425958_PM_at (spleen, 100DMF-vs-Veh, 7 h): 2.33 | FC Kif22 1437716_PM_x_at (spleen, 100DMF-vs-Veh, 7 h): 1.53 | FC LOC677317 /// Me1 1416632_PM_at (spleen, 100DMF-vs-Veh, 7 h): 1.52 | FC Nqo1 (1423627_PM_at) (spleen, 100DMF-vs-Veh, 7 h): 3.34 | FC Pir (1429001_PM_at) (spleen, 100DMF-vs-Veh, 7 h): 2.99 | FC Polh 1447837_PM_x_at (spleen, 100DMF-vs-Veh, 7 h): 1.51 | FC Srxn1 (1419942_PM_at) (spleen, 100DMF-vs-Veh, 7 h): 2.08 | FC Srxn1 (1426875_PM_s_at) (spleen, 100DMF-vs-Veh, 7 h): 2.08 | FC Srxn1 (1451680_PM_at) (spleen, 100DMF-vs-Veh, 7 h): 1.84 | FC Tmem41b 1428586_PM_at (spleen, 100DMF-vs-Veh, 7 h): 1.61 | FC Ugt1a1 /// Ugt1a10 /// Ugt1a2 /// Ugt1a5 /// Ugt1a6a /// Ugt1a6b /// Ugt1a7c /// Ugt1a9 (1426261_PM_s_at) (spleen, 100DMF-vs-Veh, 7 h): 1.51 | differentially expressed genes (whole blood, 100DMF-vs-Veh, 12 h): None | differentially expressed genes (whole blood, 100DMF-vs-90MMF, 7 h): None | differentially expressed genes (whole blood, 100DMF-vs-90MMF, 12 h): None | FC Dtx4 1436545_PM_at [6]: 1.72 | FC Egln3 1418649_PM_at [6]: 1.82 | FC Rnf128 (1449036_PM_at) [6]: 1.62
